This passage reports Ki results from patent US12723063B2, “GIPR-agonist compounds” (Eli Lilly and Company, priority 2019, dated 2026).

Molecules are shown by their SMILES. *1 amine or outer side, *2 acyl side, *3 side chain or, on linkers, in order; H or OH if unused. Where a SMILES comes first, the peptide text is derived from it. Side-chain parts run from the residue outwards. [ ]: non-standard residue; d: D form. The star is where a group is joined. C20 diacid = O=C(O)CCCCCCCCCCCCCCCCCCC(=O)*; C18 diacid = O=C(O)CCCCCCCCCCCCCCCCC(=O)*; γGlu = O=C(O)[C@H](CCC(=O)[*:2])N[*:1]; 4Pal = N[C@@H](Cc1ccncc1)C(=O)O; αMeL = CC(C)C[C@](C)(N)C(=O)O; Orn = NCCC[C@H](N)C(=O)O; AEEA = NCCOCCOCC(=O)O; Aib = CC(C)(N)C(=O)O

In one assay the target is T1, human GIPR (Homo sapiens, UniProt P48546).
T1 construct: expressed in transfected cells; crude membranes
T1 sequence (P48546 22-466): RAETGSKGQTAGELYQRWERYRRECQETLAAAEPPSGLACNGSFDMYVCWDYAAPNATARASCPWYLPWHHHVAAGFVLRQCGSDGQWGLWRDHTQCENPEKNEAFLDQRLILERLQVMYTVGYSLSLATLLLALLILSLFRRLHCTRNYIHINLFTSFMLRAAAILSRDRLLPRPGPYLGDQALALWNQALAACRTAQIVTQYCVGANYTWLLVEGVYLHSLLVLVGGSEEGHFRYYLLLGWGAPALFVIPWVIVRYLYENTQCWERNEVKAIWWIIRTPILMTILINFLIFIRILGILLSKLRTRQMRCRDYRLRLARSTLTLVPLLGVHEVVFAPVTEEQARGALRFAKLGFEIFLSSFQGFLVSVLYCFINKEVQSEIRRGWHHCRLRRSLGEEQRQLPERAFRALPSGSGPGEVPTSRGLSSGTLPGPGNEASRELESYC
Kind of assay: [125I]-GIP binding, SPA with WGA beads, 0.1% bacitracin. The settings on record: geometric mean, read-out: hGIPR Ki. The method, boiled down:
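Ki values are geometric means (SEM, n independent days), derived from four-parameter nonlinear regression of IC50. Membranes came from hGIPR-expressing CHO cells.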

In the next assay the target is T2, human GcgR (Homo sapiens, UniProt P47871).
T2 construct: expressed in transfected cells; crude membranes
T2 sequence (P47871 26-477): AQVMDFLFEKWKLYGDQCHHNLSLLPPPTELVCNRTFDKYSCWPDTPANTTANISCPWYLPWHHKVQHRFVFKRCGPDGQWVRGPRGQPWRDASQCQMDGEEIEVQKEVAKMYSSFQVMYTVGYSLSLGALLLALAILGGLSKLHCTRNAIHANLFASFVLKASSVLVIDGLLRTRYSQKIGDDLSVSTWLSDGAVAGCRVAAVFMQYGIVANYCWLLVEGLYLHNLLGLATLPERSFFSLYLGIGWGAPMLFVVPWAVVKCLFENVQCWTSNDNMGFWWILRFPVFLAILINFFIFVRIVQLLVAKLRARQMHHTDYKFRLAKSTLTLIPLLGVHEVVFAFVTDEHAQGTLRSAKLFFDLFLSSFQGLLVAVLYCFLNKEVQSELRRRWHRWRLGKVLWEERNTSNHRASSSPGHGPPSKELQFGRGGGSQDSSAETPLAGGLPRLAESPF
Description: [125I]-Glucagon binding, SPA with WGA beads, 0.1% bacitracin. The note with it: geometric mean, read-out: hGcgR Ki. In outline:
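SPA competition binding with WGA beads on crude membranes from HEK293 cells stably expressing hGcgR. Buffer: 25 mM HEPES pH 7.4, 2.5 mM CaCl2, 1 mM MgCl2, 0.1% bacitracin, 0.003% Tween-20; 10-point 3-fold dilutions, NSB with 1 μM Gcg.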

Another assay concerns the target T3, human GLP-1R (Homo sapiens, UniProt P43220).
T3 construct: expressed in transfected cells; crude membranes
Kind of assay: [125I]-GLP-1 binding, SPA with WGA beads, 0.1% bacitracin. The settings on record: geometric mean, read-out: hGLP1R Ki. In outline:
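Binding buffer was 25 mM HEPES pH 7.4 with 2.5 mM CaCl2, 1 mM MgCl2, 0.1% (w/v) bacitracin, 0.003% Tween-20 and EDTA-free protease inhibitors. Four-parameter regression gave IC50, converted to Ki (geometric mean, SEM, n independent days).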

T3 sequence (P43220 24-463): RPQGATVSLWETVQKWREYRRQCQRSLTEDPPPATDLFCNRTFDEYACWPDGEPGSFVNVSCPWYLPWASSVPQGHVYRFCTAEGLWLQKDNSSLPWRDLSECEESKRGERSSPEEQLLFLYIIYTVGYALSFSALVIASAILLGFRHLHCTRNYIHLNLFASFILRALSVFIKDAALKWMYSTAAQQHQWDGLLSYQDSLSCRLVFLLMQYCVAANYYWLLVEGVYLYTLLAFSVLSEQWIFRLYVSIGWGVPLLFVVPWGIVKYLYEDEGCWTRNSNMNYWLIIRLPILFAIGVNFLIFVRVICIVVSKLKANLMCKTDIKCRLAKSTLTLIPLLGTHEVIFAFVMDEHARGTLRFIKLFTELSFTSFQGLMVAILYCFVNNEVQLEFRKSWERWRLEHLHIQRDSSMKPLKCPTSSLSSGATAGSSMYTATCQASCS

On to `CC[C@H](C)[C@H](NC(=O)[C@H](CCCN)NC(=O)[C@H](CC(=O)O)NC(=O)[C@H](CC(C)C)NC(=O)[C@](C)(CC(C)C)NC(=O)[C@@H](NC(=O)[C@H](CO)NC(=O)[C@H](Cc1ccc(O)cc1)NC(=O)[C@H](CC(=O)O)NC(=O)[C@H](CO)NC(=O)[C@@H](NC(=O)[C@H](Cc1ccccc1)NC(=O)[C@@H](NC(=O)CNC(=O)[C@H](CCC(=O)O)NC(=O)C(C)(C)NC(=O)[C@@H](N)Cc1ccc(O)cc1)[C@@H](C)O)[C@@H](C)CC)[C@@H](C)CC)C(=O)N[C@@H](Cc1c[nH]cn1)C(=O)N[C@@H](CCC(N)=O)C(=O)NC(C)(C)C(=O)N[C@@H](CCC(=O)O)C(=O)N[C@@H](Cc1ccccc1)C(=O)N[C@H](C(=O)N[C@@H](CCC(=O)O)C(=O)N[C@@H](Cc1ccc(O)cc1)C(=O)N[C@@H](CCCCNC(=O)COCCOCCNC(=O)COCCOCCNC(=O)CC[C@H](NC(=O)CCCCCCCCCCCCCCCCCCC(=O)O)C(=O)O)C(=O)N[C@@H](CC(C)C)C(=O)N[C@@H](CCC(=O)O)C(=O)N[C@@H](CCC(N)=O)C(=O)NCC(=O)N1CCC[C@H]1C(=O)N[C@@H](CO)C(=O)N[C@@H](CO)C(=O)NCC(=O)N[C@@H](C)C(=O)N1CCC[C@H]1C(=O)N1CCC[C@H]1C(=O)N1CCC[C@H]1C(=O)N[C@@H](CO)C(N)=O)C(C)C` [Example 106] (H-Y[Aib]EGTFISDYSI[αMeL]LD[Orn]IHQ[Aib]EFVEYK([AEEA-AEEA-γGlu-C20 diacid])LEQGPSSGAPPPS-NH2), for which the inhibitory constant (Ki) (as a rule, a dissociation constant, usually derived from enzyme kinetics or from competition with a known ligand) on human GIPR is 0.0918 nM; at human GcgR it was 304 nM; at human GLP-1R, above 910 nM.
For `CC[C@H](C)[C@H](NC(=O)[C@H](CCCN)NC(=O)[C@H](CC(=O)O)NC(=O)[C@H](CC(C)C)NC(=O)[C@](C)(CC(C)C)NC(=O)[C@@H](NC(=O)[C@H](CO)NC(=O)[C@H](Cc1ccc(O)cc1)NC(=O)[C@H](CC(=O)O)NC(=O)[C@H](CO)NC(=O)[C@@H](NC(=O)[C@H](Cc1ccccc1)NC(=O)[C@@H](NC(=O)CNC(=O)[C@H](CCC(=O)O)NC(=O)C(C)(C)NC(=O)[C@@H](N)Cc1ccc(O)cc1)[C@@H](C)O)[C@@H](C)CC)[C@@H](C)CC)C(=O)N[C@@H](Cc1c[nH]cn1)C(=O)N[C@@H](CCC(N)=O)C(=O)NC(C)(C)C(=O)N[C@@H](CCC(=O)O)C(=O)N[C@@H](Cc1ccccc1)C(=O)N[C@H](C(=O)N[C@@H](CCC(=O)O)C(=O)N[C@@H](Cc1ccc(O)cc1)C(=O)N[C@@H](CCCCNC(=O)COCCOCCNC(=O)COCCOCCNC(=O)CC[C@H](NC(=O)CCCCCCCCCCCCCCCCCCC(=O)O)C(=O)O)C(=O)N[C@@H](CC(C)C)C(=O)N[C@@H](CCC(=O)O)C(=O)NCC(=O)NCC(=O)N1CCC[C@H]1C(=O)N[C@@H](CO)C(=O)N[C@@H](CO)C(=O)NCC(=O)N[C@@H](C)C(=O)N1CCC[C@H]1C(=O)N1CCC[C@H]1C(=O)N1CCC[C@H]1C(=O)N[C@@H](CO)C(N)=O)C(C)C` [Example 107] (H-Y[Aib]EGTFISDYSI[αMeL]LD[Orn]IHQ[Aib]EFVEYK([AEEA-AEEA-γGlu-C20 diacid])LEGGPSSGAPPPS-NH2), in that order: 0.0722 nM, 347 nM and above 911 nM.
For `CC[C@H](C)[C@H](NC(=O)[C@H](CCCN)NC(=O)[C@H](CC(=O)O)NC(=O)[C@H](CC(C)C)NC(=O)[C@](C)(CC(C)C)NC(=O)[C@@H](NC(=O)[C@H](CO)NC(=O)[C@H](Cc1ccc(O)cc1)NC(=O)[C@H](CC(=O)O)NC(=O)[C@H](CO)NC(=O)[C@@H](NC(=O)[C@H](Cc1ccccc1)NC(=O)[C@@H](NC(=O)CNC(=O)[C@H](CCC(=O)O)NC(=O)C(C)(C)NC(=O)[C@@H](N)Cc1ccc(O)cc1)[C@@H](C)O)[C@@H](C)CC)[C@@H](C)CC)C(=O)N[C@@H](Cc1c[nH]cn1)C(=O)N[C@@H](CCC(N)=O)C(=O)NC(C)(C)C(=O)N[C@@H](CC(=O)O)C(=O)N[C@@H](Cc1ccccc1)C(=O)N[C@H](C(=O)N[C@@H](CCC(=O)O)C(=O)N[C@@H](Cc1ccncc1)C(=O)N[C@@H](CCCCNC(=O)COCCOCCNC(=O)COCCOCCNC(=O)CC[C@H](NC(=O)CCCCCCCCCCCCCCCCCCC(=O)O)C(=O)O)C(=O)N[C@@H](CC(C)C)C(=O)N[C@@H](CCC(=O)O)C(=O)NCC(=O)NCC(=O)N1CCC[C@H]1C(=O)N[C@@H](CO)C(=O)N[C@@H](CO)C(=O)NCC(=O)N[C@@H](C)C(=O)N1CCC[C@H]1C(=O)N1CCC[C@H]1C(=O)N1CCC[C@H]1C(=O)N[C@@H](CO)C(N)=O)C(C)C` [Example 108] (H-Y[Aib]EGTFISDYSI[αMeL]LD[Orn]IHQ[Aib]DFVE[4Pal]K([AEEA-AEEA-γGlu-C20 diacid])LEGGPSSGAPPPS-NH2), in that order: 0.134 nM, above 960 nM and above 910 nM.
The like results for `CC[C@H](C)[C@H](NC(=O)[C@H](CCCCN)NC(=O)[C@H](CC(=O)O)NC(=O)[C@H](CC(C)C)NC(=O)[C@](C)(CC(C)C)NC(=O)[C@@H](NC(=O)[C@H](CO)NC(=O)[C@H](Cc1ccc(O)cc1)NC(=O)[C@H](CC(=O)O)NC(=O)[C@H](CO)NC(=O)[C@@H](NC(=O)[C@H](Cc1ccccc1)NC(=O)[C@@H](NC(=O)CNC(=O)[C@H](CCC(=O)O)NC(=O)C(C)(C)NC(=O)[C@@H](N)Cc1ccc(O)cc1)[C@@H](C)O)[C@@H](C)CC)[C@@H](C)CC)C(=O)N[C@@H](Cc1c[nH]cn1)C(=O)N[C@@H](CCC(N)=O)C(=O)NC(C)(C)C(=O)N[C@@H](CC(=O)O)C(=O)N[C@@H](Cc1ccccc1)C(=O)N[C@H](C(=O)N[C@@H](CCC(=O)O)C(=O)N[C@@H](Cc1ccncc1)C(=O)N[C@@H](CCCCNC(=O)COCCOCCNC(=O)COCCOCCNC(=O)CC[C@H](NC(=O)CCCCCCCCCCCCCCCCCCC(=O)O)C(=O)O)C(=O)N[C@@H](CC(C)C)C(=O)N[C@@H](CCC(=O)O)C(=O)NCC(=O)NCC(=O)N1CCC[C@H]1C(=O)N[C@@H](CO)C(=O)N[C@@H](CO)C(=O)NCC(=O)N[C@@H](C)C(=O)N1CCC[C@H]1C(=O)N1CCC[C@H]1C(=O)N1CCC[C@H]1C(=O)N[C@@H](CO)C(N)=O)C(C)C` [Example 109] (H-Y[Aib]EGTFISDYSI[αMeL]LDKIHQ[Aib]DFVE[4Pal]K([AEEA-AEEA-γGlu-C20 diacid])LEGGPSSGAPPPS-NH2) were, in that order, 0.117 nM, above 960 nM and above 908 nM.
Take `CC[C@H](C)[C@H](NC(=O)[C@H](CCCCN)NC(=O)[C@H](CC(=O)O)NC(=O)[C@H](CC(C)C)NC(=O)[C@](C)(CC(C)C)NC(=O)[C@@H](NC(=O)[C@H](CO)NC(=O)[C@H](Cc1ccc(O)cc1)NC(=O)[C@H](CC(=O)O)NC(=O)[C@H](CO)NC(=O)[C@@H](NC(=O)[C@H](Cc1ccccc1)NC(=O)[C@@H](NC(=O)CNC(=O)[C@H](CCC(=O)O)NC(=O)C(C)(C)NC(=O)[C@@H](N)Cc1ccc(O)cc1)[C@@H](C)O)[C@@H](C)CC)[C@@H](C)CC)C(=O)N[C@@H](Cc1c[nH]cn1)C(=O)N[C@@H](CCC(N)=O)C(=O)NC(C)(C)C(=O)N[C@@H](CC(=O)O)C(=O)N[C@@H](Cc1ccccc1)C(=O)N[C@H](C(=O)N[C@@H](CCC(=O)O)C(=O)N[C@@H](Cc1ccncc1)C(=O)N[C@@H](CCCCNC(=O)COCCOCCNC(=O)COCCOCCNC(=O)CC[C@H](NC(=O)CCCCCCCCCCCCCCCCC(=O)O)C(=O)O)C(=O)N[C@@H](CC(C)C)C(=O)N[C@@H](CCC(=O)O)C(=O)NCC(=O)NCC(=O)N1CCC[C@H]1C(=O)N[C@@H](CO)C(=O)N[C@@H](CO)C(=O)NCC(=O)N[C@@H](C)C(=O)N1CCC[C@H]1C(=O)N1CCC[C@H]1C(=O)N1CCC[C@H]1C(=O)N[C@@H](CO)C(N)=O)C(C)C` [Example 110] (H-Y[Aib]EGTFISDYSI[αMeL]LDKIHQ[Aib]DFVE[4Pal]K([AEEA-AEEA-γGlu-C18 diacid])LEGGPSSGAPPPS-NH2): the inhibitory constant (Ki) at human GIPR was 0.339 nM; at human GcgR it was above 960 nM; at human GLP-1R, above 908 nM.
